Test results taken from PMC12071533, “Acridine-Based Chalcone 1C and ABC Transporters” (International Journal of Molecular Sciences, 2025).

Molecular target: T1, ABCB1 (multidrug resistance protein 1, P-glycoprotein) (Homo sapiens, UniProt P08183)
T1 construct: recombinant human ABCB1 in MDR1-Sf9 membranes
Experiment: vanadate-sensitive ATPase assay (Pi release) in MDR1-Sf9 membranes; inhibition of verapamil-stimulated activity, biphasic in the activation test
Type: biochemical
Conditions: read-out: EC50 (the source's name)

- IC50: 5.53 ± 0.97 µM
Structure (SMILES): COc1cccc(OC)c1C(=O)/C=C/c1c2ccccc2nc2ccccc12 [1C, (2E)-3-(acridin-9-yl)-1-(2,6-dimethoxyphenyl)prop-2-en-1-one]
